# Measured values as given in patent US8993595B2, “Macrocyclic serine protease inhibitors” (priority 2009, dated 2015).
# Key:
# [1] = molecular target: T1, HCV NS3-4A Protease Genotype 1a (Hepatitis C virus genotype 1a, UniProt P27958); assay: HCV protease assay, recombinant NS3-4A genotype 1a; type: biochemical; details: mean ± SD, 3 experiments
# T1 construct: recombinant HCV NS3-4A proteases
# Method: (§1) The compounds were tested at a variety of concentrations in assay buffer containing a final DMSO concentration of 5%. Reactions were allowed to proceed for 60 min at room temperature and fluorescence measurements were recorded with a Tecan Infinity Spectrofluorimeter. The IC50 values were determined from the percent inhibition versus concentration data using a sigmoidal non-linear regression analysis based on four parameters with Tecan Magellan software.
# (§2) Compound 52 was tested against genotypes 1a, 1b, 2a, 3a, and 4a of recombinant HCV NS3-4A proteases, along with other cellular proteases.
# [2] = molecular target: T2, HCV NS3-4A Protease Genotype 2a (Hepatitis C virus genotype 2a, UniProt Q99IB8); assay: HCV protease assay, recombinant NS3-4A genotype 2a; type: biochemical; details: mean ± SD, 3 experiments
# T2 construct: recombinant HCV NS3-4A proteases
# Method: as §1, §2
# [3] = in vitro; type: cell-based; details: human; GS4.1 cells, Cell Titer 96 AQueous One Solution
# Method: For cytotoxicity evaluation, GS4.1 cells were treated with compounds as described above and cellular viability was monitored using the Cell Titer 96 AQueous One Solution Cell Proliferation Assay (Promega). CC50 values were determined from the % cytotoxicity versus concentration data with Tecan Magellan software as described above.
# [4] = test system: 1a replicon; assay: HCV replicon luciferase assay, genotype 1a; type: cell-based
# Method: Compound 52 was tested against genotypes 1a, 1b, and 2a in an HCV replicon assay as described in Example 2. Replicon cells (genotype 1a or 1b) were seeded onto 96-well plates, cultured for three days in the presence of the compound, and subject to a luciferase assay.
# [5] = Cytotoxicity in parallel, colorimetric proliferation assay, 1b replicon cells; type: cell-based; details: human, replicon cells (genotype 1b)
# [6] = test system: B-1a cell line (genotype 1a replicon selected with 10 nM, D168A); assay: Extent of resistance after selection, B-1a; type: cell-based, HCV; details: selecting conc. 10 nM
# Method: Replicon cells (genotype 1a or 1b) were treated with various concentrations of compound 52 in the presence of G418. Treatment-emergent genotypic changes were identified by population sequencing of NS3 (both protease and helicase regions). The activity of compound 52 and other compounds was evaluated by NS5A western blot after selection or luciferase assay during and after selection.
# [7] = in vitro; type: cell-based; details: 48 hrs, intracellular ATP
# Method: Freshly isolated hepatocytes were incubated with various concentrations of […] for 48 hrs. Intracellular ATP content was measured (CellTiter-Glo luminescent cell viability assay) to determine cell cytotoxicity (CC50).
# [8] = molecular target: T3, human CYP450 2B6 (Homo sapiens, UniProt P20813); assay: CYP450 inhibition assay, 2B6; type: in vitro ADME
# T3 construct: purchased BD Bioscience
# Method: (§3) Compound 52 was incubated with human CYP450 cDNA-expressed isoenzymes according to the protocol (BD Bioscience). For CYP2C9, a luminogenic substrate was used with the P450-Glo™ kit. In addition, the effect of the compound on CYP2C9-mediated diclofenac metabolism was measured by LC-UV. The potential inhibitory effect of the compound on human UGT1A1 was examined using human liver microsomes and bilirubin as substrate. The metabolites (mono- and di-glucuronidated bilirubin) were measured by LC-UV.
# [9] = molecular target: T4, human CYP450 2D6 (Homo sapiens, UniProt P10635); assay: CYP450 inhibition assay, 2D6; type: in vitro ADME
# T4 construct: purchased BD Bioscience
# Method: as §3
# [10] = test system: central nervous, renal, and gastrointestinal systems of mice; parameters: species or system CD-1 mouse; details: mouse, in vivo
# Description: One in vitro GLP safety pharmacology study evaluated the effects of compound 52 on hERG channel currents in voltage-clamped human embryonic kidney cells (HEK293) stably expressing the human ether-à-go-go-related gene (hERG) channel. Four in vivo GLP safety pharmacology studies evaluated the potential effects of the compound on the cardiovascular and respiratory systems in the cynomolgus monkey and on the central nervous, renal, and gastrointestinal systems in the CD-1 mouse at single oral doses up to 250 mg/kg of compound 52.
# [11] = test system: human peripheral blood lymphocytes; type: cell-based; details: up to 84 μg/mL, with and without S9
# Method: The potential for compound 52 to induce mutations in a bacterial system (S. typhimurium and E. coli—at concentrations up to 5,000 μg/plate), to induce chromosomal aberrations in cultures of human peripheral blood lymphocytes (at concentrations up to 84 μg/mL), and to induce clastogenic and/or aneugenic activity in CD-1 mice (at oral doses up to 2,000 mg/kg) was evaluated. The two in vitro studies were performed with and without the addition of a mammalian metabolic activation system (rat liver S9 subcellular fraction).
# [12] = test system: mice; details: mouse, in vivo
# Method: (§4) Daily oral doses of compound 52 (up to 250 mg/kg/day) in PEG 400 were administered to both mice and monkeys for 28 consecutive days. Toxicity was evaluated based on mortality, clinical observations, body weights, food consumption, ophthalmological examination, hematology and serum chemistry, organ weights, gross and microscopic examinations. ECG, coagulation and urinalysis were also performed in the monkey study.
# [13] = test system: monkeys; details: oral doses up to 250 mg/kg
# Method: as §4
# [14] = clinical; details: human, in vivo; for AUC(0-inf): AUC0-∞
# [15] = 50 mg, single dose 50 mg, human volunteers
# [16] = 100 mg, single dose 100 mg, human volunteers
# [17] = 200 mg, single dose 200 mg, HCV patients, N = 2
# [18] = 200 mg, single dose 200 mg, human volunteers
# [19] = 400 mg, single dose 400 mg Fasted, human volunteers
# [20] = 400 mg, single dose 400 mg, human volunteers
compound,measurement,setting,value
"COc1ccc2c(O[C@H]3CCN4C(=O)N(C)CCCC/C=C\[C@@H]5C[C@@]5(C(=O)NS(=O)(=O)C5(C)CC5)NC(=O)[C@@H]4C3)cc(-c3nc(C(F)(F)F)cs3)nc2c1C [Compound 52, 1-methyl-cyclopropanesulfonic acid{(Z)-(1S,4R,6S,18S)-18-[7-methoxy-8-methyl-2-(4-trifluoromethyl-thiazol-2-yl)-quinolin-4-yloxy]-13-methyl-2,14-dioxo-3,13,15-triaza-tricyclo[13.4.0.0*4,6*]nonadec-7-ene-4-carbonyl}amide]",IC50,[1],0.0011 ± 0.0001 µM
same,IC50,[2],0.0019 ± 0.0005 µM
same,CC50,[3],10 to 75 µM
same,Selectivity Index,[4],">22,647"
same,EC50,"[4]; Hepatitis C virus, 72 h, three days, luciferase assay",0.0034 ± 0.0011 µM
same,CC50 at 5 days,[5],25.2 ± 5.3 µM
same,Fold-Change,[6],>3690
same,CC50,[7]; fresh human hepatocytes,> 10 µM
same,CC50,[7]; fresh monkey hepatocytes,> 10 µM
same,CC50,[7]; fresh mouse hepatocytes,> 10 µM
same,CC50,[7]; fresh rat hepatocytes,> 10 µM
same,IC50,[8],≥ 10 µM
same,IC50,[9],≥ 10 µM
same,"effects on the central nervous system, renal function, or gastrointestinal motility",[10],no effects
same,"genotoxicity, human lymphocyte chromosomal aberration test",[11],no genotoxicity
same,tolerability in 4-week GLP toxicology study,[12],well tolerated
same,tolerability in 4-week GLP toxicology study,[13],well tolerated
same,AUC(0-inf),[14]; [15],2020 ± 744 ng·h/mL
same,Cmax,[14]; [15],346 ± 87 ng/mL
same,half-life,"[14]; 50 mg, T1/2, single dose 50 mg, human volunteers",13 ± 6 h
same,Tmax,[14]; [15],3 h
same,AUC(0-inf),[14]; [16],3540 ± 1010 ng·h/mL
same,Cmax,[14]; [16],467 ± 72 ng/mL
same,half-life,"[14]; 100 mg, T1/2, single dose 100 mg, human volunteers",24 ± 7 h
same,Tmax,[14]; [16],3 h
same,AUC(0-inf),[14]; [17],13900 ng·h/mL
same,AUC(0-inf),[14]; [18],7240 ± 2930 ng·h/mL
same,Cmax,[14]; [17],1060 ng/mL
same,Cmax,[14]; [18],982 ± 463 ng/mL
same,half-life,"[14]; 200 mg, T1/2, single dose 200 mg, HCV patients, N = 2",32 h
same,half-life,"[14]; 200 mg, T1/2, single dose 200 mg, human volunteers",26 ± 7 h
same,Tmax,[14]; [17],3.5 h
same,Tmax,[14]; [18],3 h
same,AUC(0-inf),[14]; 400 mg,9460 ± 2330 ng·h/mL
same,AUC(0-inf),[14]; [19],4190 ± 1590 ng·h/mL
same,Cmax,[14]; [19],368 ± 89 ng/mL
same,Cmax,[14]; [20],1120 ± 505 ng/mL
same,half-life,"[14]; 400 mg, T1/2, single dose 400 mg Fasted, human volunteers",15 ± 8 h
same,half-life,"[14]; 400 mg, T1/2, single dose 400 mg, human volunteers",25 ± 7 h
same,Tmax,[14]; [19],3 h
same,Tmax,[14]; [20],3 h
